Experimental data reported in patent publication US11325916B1, “Spiropyrrolidine derived antiviral agents” (priority 2021, dated 2022).
Read-outs that look alike come from different tables or passages of the source.

Assays:
[1] = test system: 229E human corona virus (hCoV); experiment: 229E Live Virus Assay (MRC-5 cells, CPE, ATPlite readout); assay type: cell-based, hCoV-229E; details: read-out: 229E EC50
SARS-CoV-2 3CL-protease = SARS-CoV-2 3CL-protease (Severe acute respiratory syndrome coronavirus 2 (2019-nCoV) (SARS-CoV-2), UniProt P0DTD1); experiment: SARS-CoV-2 3C-Like (3CL) Protease Fluorescence Assay (FRET); assay type: biochemical
[2] = Human coronavirus 229E, MRC5, 144 h
[3] = Human coronavirus 229E, MRC5, 144 h, MRC-5 cells, hCoV-229E MOI 0.05, 6 days at 34° C., ATPlite, duplicate, ranges defined in μM

Compound | IC50 (SARS-CoV-2 3CL-protease) [µM] | other results
CC(C)C[C@@H](C(=O)N1C[C@]2(C[C@H]1C#N)C(=O)Nc1ccccc12)N(C)C(=O)[C@H](Cc1ccc(F)cc1)NC(=O)OCc1ccccc1 [Example 1] | < 0.1 | EC50 [1, 2]: < 0.1 µM
CC(C)C[C@@H](C(=O)N1C[C@]2(C[C@H]1C#N)C(=O)Nc1ccccc12)N(C)C(=O)[C@H](Cc1ccc(F)cc1)NC(=O)C(F)(F)F [Example 2] | < 0.1 | EC50 [1, 3]: < 0.1 µM
COC(=O)N[C@@H](Cc1ccc(F)cc1)C(=O)N(C)[C@@H](CC(C)C)C(=O)N1C[C@]2(C[C@H]1C#N)C(=O)Nc1ccccc12 [Example 3] | < 0.1 | EC50 [1, 2]: < 0.1 µM
Cc1cc(C(=O)N[C@@H](Cc2ccc(F)cc2)C(=O)N(C)[C@@H](CC(C)C)C(=O)N2C[C@]3(C[C@H]2C#N)C(=O)Nc2ccccc23)no1 [Example 4] | < 0.1 | EC50 [1, 3]: < 0.1 µM
CN(C(=O)[C@H](Cc1ccc(F)cc1)NC(=O)OCc1ccccc1)[C@@H](CC(C)(C)C)C(=O)N1C[C@]2(C[C@H]1C#N)C(=O)Nc1ccccc12 [Example 5] | < 0.1 | EC50 [1, 2]: < 0.1 µM
CN(C(=O)[C@H](Cc1ccc(F)cc1)NC(=O)C(F)(F)F)[C@@H](CC(C)(C)C)C(=O)N1C[C@]2(C[C@H]1C#N)C(=O)Nc1ccccc12 [Example 6] | < 0.1 | EC50 [1, 3]: < 0.1 µM
CN(C(=O)[C@H](Cc1ccc(F)cc1)NC(=O)c1cc2c(F)cc(F)c(F)c2[nH]1)[C@@H](CC(C)(C)C)C(=O)N1C[C@]2(C[C@H]1C#N)C(=O)Nc1ccccc12 [Example 7] | < 0.1 | EC50 [1, 2]: < 0.1 µM
CN(C(=O)[C@H](Cc1ccc(F)cc1)NC(=O)NC1CC1)[C@@H](CC(C)(C)C)C(=O)N1C[C@]2(C[C@H]1C#N)C(=O)Nc1ccccc12 [Example 8] | < 0.1 | EC50 [1, 2]: < 0.1 µM
CN(C(=O)[C@H](Cc1ccc(F)cc1)n1cc(C2CC2)nn1)[C@@H](CC(C)(C)C)C(=O)N1C[C@]2(C[C@H]1C#N)C(=O)Nc1ccccc12 [Example 9] | < 0.1 | EC50 [1, 3]: < 0.1 µM
CC(C)C[C@@H](C(=O)N1C[C@]2(C[C@H]1C#N)C(=O)Nc1ccccc12)N1CC[C@H](NC(=O)OC(C)(C)C)C1=O [Example 10] | 0.1 to 1 | EC50 [1, 3]: 0.1 to 1 µM
CC(C)C[C@@H](C(=O)N1C[C@]2(C[C@H]1C#N)C(=O)Nc1ccccc12)N(C)C(=O)[C@@H](NC(=O)OCc1ccccc1)C(C)(C)C [Example 11] | < 0.1 | EC50 [1, 2]: 0.1 to 1 µM
CC(C)C[C@@H](C(=O)N1C[C@]2(C[C@H]1C#N)C(=O)Nc1ccccc12)N(C)C(=O)[C@@H](NC(=O)C(F)(F)F)C(C)(C)C [Example 12] | < 0.1 | EC50 [1, 2]: 0.1 to 1 µM
COC(=O)N[C@H](C(=O)N(C)[C@@H](CC(C)C)C(=O)N1C[C@]2(C[C@H]1C#N)C(=O)Nc1ccccc12)C(C)(C)C [Example 13] | < 0.1 | EC50 [1, 2]: 0.1 to 1 µM
CC(C)C[C@@H](C(=O)N1C[C@]2(C[C@H]1C#N)C(=O)Nc1ccccc12)N(C)C(=O)[C@H](CC1CC1)NC(=O)OCc1ccccc1 [Example 14] | < 0.1 | EC50 [1, 2]: < 0.1 µM
CC(C)C[C@@H](C(=O)N1C[C@]2(C[C@H]1C#N)C(=O)Nc1ccccc12)N(C)C(=O)[C@H](CC1CC1)NC(=O)C(F)(F)F [Example 15] | < 0.1 | EC50 [1, 2]: < 0.1 µM
COC(=O)N[C@@H](CC1CC1)C(=O)N(C)[C@@H](CC(C)C)C(=O)N1C[C@]2(C[C@H]1C#N)C(=O)Nc1ccccc12 [Example 16] | < 0.1 | EC50 [1, 2]: < 0.1 µM
CC(C)C[C@@H](C(=O)N1C[C@]2(C[C@H]1C#N)C(=O)Nc1ccccc12)N(C)C(=O)[C@H](CC1CC1)NC(=O)c1ccc(F)cc1 [Example 17] | < 0.1 | EC50 [1, 2]: < 0.1 µM
CC(C)C[C@@H](C(=O)N1C[C@]2(C[C@H]1C#N)C(=O)Nc1ccccc12)N(C)C(=O)[C@H](Cc1ccc(F)cc1)NC(=O)c1cnccn1 [Example 18] | < 0.1 | EC50 [1, 2]: < 0.1 µM
CC(C)C[C@@H](C(=O)N1C[C@]2(C[C@H]1C#N)C(=O)Nc1ccccc12)N(C)C(=O)[C@H](Cc1ccc(F)cc1)NC(=O)c1ccn(C)n1 [Example 19] | < 0.1 | EC50 [1, 2]: < 0.1 µM
CC(C)(C)C[C@H](NC(=O)[C@H](CC1CC1)NS(=O)(=O)C1CC1)C(=O)N1C[C@]2(C[C@H]1C#N)C(=O)Nc1ccccc12 [Example 37] | < 0.1 | 
CC(C)(C)C[C@H](NC(=O)[C@H](CC1CC1)NC(=O)NC1CC1)C(=O)N1C[C@]2(C[C@H]1C#N)C(=O)Nc1ccccc12 [Example 38] | < 0.1 | 
CC(C)(C)C[C@H](NC(=O)[C@H](CC1CC1)n1cc(C2CC2)nn1)C(=O)N1C[C@]2(C[C@H]1C#N)C(=O)Nc1ccccc12 [Example 53] | < 0.1 | 
CC(C)(C)C[C@H](NC(=O)[C@H](CC1CC1)NC(=O)C1(c2ccccc2)CC1)C(=O)N1C[C@]2(C[C@H]1C#N)C(=O)Nc1ccccc12 [Example 71] | < 0.1 | 
CC(C)(C)C[C@H](NC(=O)[C@H](CC1CC1)NC(=O)C(F)(F)c1ccccc1)C(=O)N1C[C@]2(C[C@H]1C#N)C(=O)Nc1ccccc12 [Example 79] | < 0.1 | 
CC(C)(C)C[C@H](NC(=O)[C@H](CC1CC1)NC(=O)N1CCOCC1)C(=O)N1C[C@]2(C[C@H]1C#N)C(=O)Nc1ccccc12 [Example 84] | < 0.1 | 

Compound | IC50 (SARS-CoV-2 3CL-protease) [µM] | other results
CC(=O)N[C@@H](CC1CC1)C(=O)N[C@@H](CC(C)(C)C)C(=O)N1C[C@]2(C[C@H]1C#N)C(=O)Nc1ccccc12 [Example 95] | < 0.1 | 
CC(C)(C)C[C@H](NC(=O)[C@H](CC1CC1)NC(=O)C(F)(F)F)C(=O)N1C[C@]2(C[C@H]1C#N)C(=O)Nc1ccccc12 [Example 96] | < 0.1 | 
CC(C)(C)C[C@H](NC(=O)[C@H](CC1CC1)NC(=O)c1ccc(F)cc1)C(=O)N1C[C@]2(C[C@H]1C#N)C(=O)Nc1ccccc12 [Example 97] | < 0.1 | 
CC(C)(C)C[C@H](NC(=O)[C@H](CC1CC1)NC(=O)c1cnccn1)C(=O)N1C[C@]2(C[C@H]1C#N)C(=O)Nc1ccccc12 [Example 98] | < 0.1 | 
Cc1cc(C(=O)N[C@@H](CC2CC2)C(=O)N[C@@H](CC(C)(C)C)C(=O)N2C[C@]3(C[C@H]2C#N)C(=O)Nc2ccccc23)no1 [Example 99] | < 0.1 | 
Cc1ncc(C(=O)N[C@@H](CC2CC2)C(=O)N[C@@H](CC(C)(C)C)C(=O)N2C[C@]3(C[C@H]2C#N)C(=O)Nc2ccccc23)s1 [Example 100] | < 0.1 | 
CC(C)(C)C[C@H](NC(=O)[C@H](CC1CC1)NC(=O)N1CCCCC1)C(=O)N1C[C@]2(C[C@H]1C#N)C(=O)Nc1ccccc12 [Example 101] | < 0.1 | 
CC(C)(C)C(NC(=O)C(F)(F)F)C(=O)N1CCC[C@H]1C(=O)N1C[C@]2(C[C@H]1C#N)C(=O)Nc1ccccc12 (stereo partly drawn) [Example 102] | > 1 | 
CC(=O)N[C@@H](Cc1ccc(F)cc1)C(=O)N(C)[C@@H](CC(C)(C)C)C(=O)N1C[C@]2(C[C@H]1C#N)C(=O)Nc1ccccc12 [Example 103] | < 0.1 | 
CC(C)(C)C[C@H](NC(=O)[C@H](Cc1ccc(F)cc1)NC(=O)c1cnccn1)C(=O)N1C[C@]2(C[C@H]1C#N)C(=O)Nc1ccccc12 [Example 104] | < 0.1 | 
Cc1cc(C(=O)N[C@@H](Cc2ccc(F)cc2)C(=O)N[C@@H](CC(C)(C)C)C(=O)N2C[C@]3(C[C@H]2C#N)C(=O)Nc2ccccc23)no1 [Example 105] | < 0.1 | 
CN(C)[C@@H](CC1CC1)C(=O)N[C@@H](CC(C)(C)C)C(=O)N1C[C@]2(C[C@H]1C#N)C(=O)Nc1ccccc12 [Example 106] | > 1 | 
CC(C)[C@H](NS(=O)(=O)c1ccc(F)cc1)C(=O)N(C)[C@@H](CC(C)(C)C)C(=O)N1C[C@]2(C[C@H]1C#N)C(=O)Nc1ccccc12 [Example 111] |  | EC50 ([1]; MRC-5 cells, hCoV-229E MOI 0.05, 6 days at 34° C., ATPlite, duplicate, ranges defined in μM): 0.1 to 1 µM
CC(C)C[C@@H](C(=O)N1C[C@]2(C[C@H]1C#N)C(=O)Nc1ccccc12)N(C)C(=O)[C@@H](NC(=O)C(F)(F)F)c1ccccc1 [Example 116] | < 0.1 | 
CC(C)C[C@@H](C(=O)N1C[C@]2(C[C@H]1C#N)C(=O)Nc1ccccc12)N(C)C(=O)[C@H](NC(=O)C(F)(F)F)c1ccccc1 [Example 117] | < 0.1 | 
CC(C)C[C@@H](C(=O)N1C[C@]2(C[C@H]1C#N)C(=O)Nc1ccccc12)N(C)C(=O)C(NC(=O)c1ccc(F)c(F)c1)c1ccccc1 (stereo partly drawn) [Example 118] | < 0.1 | 
CC(C)(C)C[C@H](NC(=O)[C@H](CC1CC1)N1CCOC1=O)C(=O)N1C[C@]2(C[C@H]1C#N)C(=O)Nc1ccccc12 [Example 119] | < 0.1 | 
CN(C(=O)[C@H](CC1CC1)NC(=O)c1cc(OC(F)(F)F)c2ncccc2c1)[C@@H](CC(C)(C)C)C(=O)N1C[C@]2(C[C@H]1C#N)C(=O)Nc1ccccc12 [Example 125] | < 0.1 | 
CN(C(=O)[C@H](CC1CC1)NC(=O)c1cc2c(F)cc(F)c(F)c2[nH]1)[C@@H](CC(C)(C)C)C(=O)N1C[C@]2(C[C@H]1C#N)C(=O)Nc1ccccc12 [Example 126] | < 0.1 | 
CN(C(=O)[C@H](CC1CC1)NC(=O)c1cc(F)c2nn(C3CC3)cc2c1)[C@@H](CC(C)(C)C)C(=O)N1C[C@]2(C[C@H]1C#N)C(=O)Nc1ccccc12 [Example 127] | < 0.1 | 
CC(=O)N[C@@H](C)C(=O)N(C)[C@@H](CC(C)(C)C)C(=O)N1C[C@]2(C[C@H]1C#N)C(=O)Nc1ccccc12 [Example 129] | < 0.1 | 
CC(C)C(=O)N[C@@H](C)C(=O)N(C)[C@@H](CC(C)(C)C)C(=O)N1C[C@]2(C[C@H]1C#N)C(=O)Nc1ccccc12 [Example 130] | < 0.1 | 
CN(C(=O)[C@H](CC1CC1)NC(=O)c1ccc(OC2CC2)c(OC2CC2)c1)[C@@H](CC(C)(C)C)C(=O)N1C[C@]2(C[C@H]1C#N)C(=O)Nc1ccccc12 [Example 131] | < 0.1 | 
CN(C)[C@@H](CC1CC1)C(=O)N(C)[C@@H](CC(C)(C)C)C(=O)N1C[C@]2(C[C@H]1C#N)C(=O)Nc1ccccc12 [Example 132] | 0.1 to 1 | 
CC(C)C[C@@H](C(=O)N1C[C@]2(C[C@H]1C#N)C(=O)Nc1ccccc12)N(C)C(=O)[C@H](C)NC(=O)c1ccc(F)cc1 [Example 135] | < 0.1 | 
